row,Structure (SMILES),melting point [°C]
1,COc1ccc(Nc2nc(Nc3ccc(OC)c(F)c3)nc(OCC3CCCCC3)n2)cc1F,181
2,COC(=O)/C(=C/C=C/c1cc2cc(Cl)c(Cl)cc2[nH]1)OC,203 to 204
3,O=C(O)c1cnc2ccn(Cc3ccccc3)n2c1=O,198 to 199
4,CCCCCCCCC(=O)Nc1ccc([N+](=O)[O-])cc1,76 to 76.5
5,CS(=O)(=O)c1ccc(-c2cnn(CCc3ccccc3)c(=O)c2-c2ccc(F)cc2)cc1,170 to 171
6,CCCNc1cc(=O)[nH]c(-c2ccccc2OCCC)n1,172 to 173
7,O=C(Nc1ccc(-c2cnc(-c3ccc(NC(=O)c4c(F)c(F)c(F)c(F)c4F)cc3)[nH]2)cc1)c1cccnc1,265 to 266
8,COC12CC(C)(C)C(O1)C(=O)CC2C (stereo not given),38 to 39
9,O=C(O)c1ccc(-c2ccc(S(=O)(=O)N3CCCC(CO)C3)cc2)[nH]c1=O (stereo not given),300 to 304
10,CCOc1nn(Cc2ccc(OCCc3nc(-c4ccccc4)oc3C)cc2)cc1CCC(=O)O,142 to 143
11,Cc1cc(NC(=O)Nc2ccc(N(CCCl)CCCl)cc2)c2ccccc2n1,128 to 129
12,CC(C)C(C(=O)O)N(Cc1cccnc1)S(=O)(=O)c1ccc(-c2ccc(NC(=O)c3cc4ccccc4o3)cc2)cc1 (stereo not given),261 to 262
13,CCCNCCc1ccc(NS(=O)(=O)c2ccc(Cl)cc2Cl)cc1,165 to 168
14,CN1CCC(C(O)(c2ccc(F)cc2)c2ccc3ccccc3c2)CC1 (stereo not given),164 to 169
15,FC(F)(F)c1cccc(C2=CCN(CCc3ccc(-c4ccccc4)cc3)CC2)c1,114 to 116
16,CCOP(=O)(CCCN)OCC,54
17,Cc1ccc(N2CCN(c3c(C)c(C)c4c(c3C)CC(C)(CO)O4)CC2)cc1 (stereo not given),152 to 155
18,N#CCOc1ccc(-c2cc(O)c(SCCc3ccccc3)c(=O)o2)cc1,157 to 159
19,C=CCNCC(COc1cccc2c1CC(=O)N2)OC(=O)C12CC3CC(CC(C3)C1)C2 (stereo not given),170 to 172
20,COC(=O)c1cc(O)ccc1NC(=O)c1ccc(Cl)cc1Cl,181 to 182
21,CCN1CCN(CCOc2cc3ncc(C#N)c(Nc4cc(OC)c(Cl)cc4Cl)c3cc2OC)CC1,101 to 105
22,C=CCCCOc1cc(OCCCCCCCC)ccc1C(=O)O,67 to 68

row,Structure (SMILES),melting point [°C]
1,CSc1nc(Cl)c(Cc2ccccc2)c(N2CCCC2)n1,97 to 99
2,CCOC(=O)c1c(OC)c2cc(Cl)ccc2c(=O)n1C,122 to 123
3,Cc1[nH]c(=O)c(C#N)cc1-c1ccc(CC(=O)O)cc1,280 to 282
4,COC(=O)c1nc(Cl)cc(N)c1OC,78 to 79
5,O=C(O)C=C1SC(=NCCc2ccccc2)N(CCc2ccccc2)C1=O,148 to 149
6,COC(=O)[C@@H]1CSCN1S(=O)(=O)c1ccc(Cl)c(CBr)c1Cl,48 to 50
7,COCc1c(C(=O)OC(C)C)ncc2[nH]c3ccc(CCc4ccc(Cl)cc4)cc3c12,149 to 151
8,CCSc1cc(C)nc(SCC)c1NC(=O)CCCCCCSc1nc2cccc(C(F)(F)F)c2o1,127 to 128
9,CC(C)(C)NS(=O)(=O)c1ccccc1C(=O)CF,126
10,CS(=O)(=O)Nc1ccc2c(c1)C(=O)CC1(CCN(CCc3ccc(N)c(N)c3)CC1)O2,109 to 112
11,CNc1cc(NS(=O)(=O)c2ccc(F)cc2)nc(NC)n1,261 to 263
12,CC(C)(C)C1OCCO1,86
13,N#Cc1ccc(C(O)CCN2CC=C(c3ccc(Cl)cc3)CC2)cc1 (stereo not given),117 to 118
14,CS(=O)(=O)c1cc(C(=O)N=C(N)N)ccc1N1CCC(N)CC1,239 to 241
15,CCCc1nc2c(N)nc3cccnc3c2n1CC1(O)CCOC1 (stereo not given),171 to 173
16,COc1ccc2cc3c(Br)nn(C(C)C)c3nc2c1,130 to 131
17,Clc1cccc(Nc2nccc(-c3ccnc(Cl)c3)n2)c1,144 to 147
18,COc1ccc(C(=O)Nc2cc(-c3c(-c4cccc(C)c4)nc4ccc(N(C)C)nn34)ccn2)cc1,193 to 194
19,C[C@]1(COc2ccc(N3CCN(C(=O)c4ccc(OC(F)(F)F)cc4)CC3)cc2)Cn2cc([N+](=O)[O-])nc2O1,202 to 203
20,CC1(C)CC(O)c2cc(N)ccc21 (stereo not given),118
21,COc1ccc(Oc2cc(N)c(F)cc2C#N)cc1,135

# Further lines, results first:
row,melting point [°C],Structure (SMILES)
1,186 to 189,CCCc1nc2c(N)nc3cc(OCCOCCOc4ccc5c(c4)nc(N)c4nc(CCC)sc45)ccc3c2s1
2,95 to 99,CC(C(=O)N(C)C)n1ccc(-c2ccc(Cl)cc2)n1 (stereo not given)
3,159 to 162,CN1C(=O)c2cccc(S(=O)(=O)Cl)c2C1=O
4,166,OCC1NCc2ccsc2-n2cccc21 (stereo not given)
5,189 to 190,CNc1nc(C)c(-c2ccnc(Nc3cccc(S(=O)(=O)NCCO)c3)n2)s1
6,193 to 197,COc1ccc2c(c1)C(=O)N(c1ccc3c(ccn3C)c1)C2
7,161,COc1cc2c(c(OC)c1OC)-c1ccc([N+](=O)[O-])cc1COC2
8,165 to 167,Cn1c(Cl)c(C=O)c2cc(Cl)ccc21
9,173 to 174,Cc1nc2cc(F)c(C)cc2c(=O)[nH]1
10,244 to 246,O=C1CSc2ccc(S(=O)(=O)Cc3c(Cl)cccc3Cl)cc2N1
11,101 to 103,CCN(CC)C(=O)COc1ccc(C(=O)CBr)cc1OC
12,147 to 150,O=[N+]([O-])c1cc(Cl)c(I)c(Cl)c1
13,188,CC(C)(C)OC(=O)CCNC1(c2ccccc2Cl)C(=O)Nc2ccc(Cl)cc21 (stereo not given)
14,229 to 231,C[C@H]1CN(c2c(F)cc3c(=O)c(C(=O)O)cn(CCF)c3c2Cl)C[C@H]1NC(=O)OC(C)(C)C (relative stereo)
15,256 to 260,CC(C)(C)c1cc(-c2c(C(=O)O)c(=O)oc3cc4c(cc23)CCC4)cc(C(C)(C)C)c1O
16,132 to 133,Cc1oc(-c2ccc3ccccc3c2)nc1COc1ccc(CCCCCOS(C)(=O)=O)cc1
17,95 to 105,Nc1ccc(C(=O)N2CCOCC2)cc1OCc1ccc(-c2ccccc2)c(-c2nnnn2C(c2ccccc2)(c2ccccc2)c2ccccc2)c1
18,104 to 105,O=C(O)CCCCCCCCCCNC(=O)C(CS)Cc1ccccc1 (stereo not given)
19,152 to 154,Nc1ccc(OC2=CC=CN(Oc3ccc(N)cc3)C2)cc1

row,melting point [°C],Structure (SMILES)
1,89,COC(=O)c1c(C)nc2ccccc2c1NCc1ccc(Br)cc1
2,248 to 250,C[C@@H](Nc1ncnc2[nH]c(-c3ccc(CN4CCN(C)CC4)cc3)cc12)c1ccccc1
3,144 to 145,CC=CC=NNC(=O)c1cccnc1
4,220 to 222,Cc1c(-c2ccccc2)oc2c(C(=O)O)cccc12
5,151 to 153,CC(C)NC(=S)NS(=O)(=O)c1ccc(S(C)(=O)=O)cc1N
6,218 to 222,CC(=O)C(=CNc1ccc(C2=NNC(=O)CC2)cc1)C(C)=O
7,54,CCOC(=O)C(C(=O)OC(C)C)=C1SC=CS1
8,74 to 75,ClCc1ncc(-c2ccccc2)cc1Cl
9,189 to 190,Oc1cc(O)c2cc(-c3ccc(F)cc3)oc2c1
10,217 to 219,CCOc1ncc(C(C)=O)cc1C(=O)Nc1c(C(N)=O)n[nH]c1CC
11,146 to 150,Oc1ccc2c(c1)OCC(c1cccc(F)c1)C2c1ccc(OCCN2CCCC2)cc1 (stereo not given)
12,177 to 178,CC=CCn1c(C(=O)c2cc(C)cc(C#N)c2)c(C(C)C)c(=O)[nH]c1=O
13,243,Cc1c(C(=O)Nc2ccc(N3CCC(N4CCOCC4)CC3)c(C#N)c2)cnn1-c1ccc(F)c(F)c1
14,69 to 71,Brc1ccc2c(c1)Sc1ccccc1CC2
15,196 to 198,N#CNC(=N)Nc1cc(Cl)cc(Cl)c1
16,189 to 191,O=C1N(Cc2ccc3nsnc3c2)c2ccccc2C12COc1cc3c(cc12)OCCO3 (stereo not given)
17,123 to 124,COC(=S)c1ccc2ccc(C(=O)N(C)C)cc2c1
18,160 to 165,Cn1cc(C2=C(c3c4n(c5ccccc35)CCN(C(=O)Oc3ccccc3)C4)C(=O)NC2=O)c2ccccc21
19,176 to 179,CC1(C)OC(=O)Nc2ccc(-c3ccccc3CC#N)cc21

row,melting point [°C],Structure (SMILES)
1,148 to 149,CCCCC(=O)c1c(-c2ccc3cc(O)ccc3c2)oc2ccccc12
2,171 to 173,c1ccc(OCn2c(Nc3cnon3)nc3ccccc32)cc1
3,185 to 187,CCC(=O)Nc1ncc(Sc2ccc(N)cc2)s1
4,126 to 130,CCC12CCC3c4ccc(OC)cc4CCC3C1CCC2O (stereo not given)
5,137 to 139,CCOc1cc([C@@H](CCN(O)C(N)=O)N2Cc3cccc(NC(=O)C(C)C)c3C2=O)ccc1OC
6,167 to 170,OCc1c(F)cccc1NC1CCN(Cc2ccccc2)CC1
7,73 to 75,c1ccc(CNC2CN(C(c3ccccc3)c3ccccc3)C2)cc1
8,155,COc1ccc(C2=NN(Cc3ccc([N+](=O)[O-])cc3)C(=O)SC2)cc1OC
9,190 to 196,CCOC(=O)c1[nH]cc2c1NC1=C(C(=O)CNC1)C2c1ccc(Sc2nc3cc(F)c(F)cc3[nH]2)o1 (stereo not given)
10,155,Cc1ccc(S(=O)(=O)OCC2COc3ccc([N+](=O)[O-])c(N)c3O2)cc1 (stereo not given)
11,300,Cn1c(=O)[nH]c(=O)c2nc(-c3ccc(/C=C/C(=O)O)cc3)[nH]c21
12,70 to 72,O=C(Nc1cc(O)c(Cl)cc1F)OCc1ccccc1
13,182 to 183,O=C(O)c1ccc(OCCCO/N=C/c2cn(Cc3ccccc3)c3ccccc23)cc1O
14,189 to 191,Cn1nc(O[C@@H]2c3cc(C(F)(F)C(F)(F)F)ccc3OC(CF)(CF)[C@H]2O)ccc1=O (relative stereo)
15,96 to 98,Nc1ccccc1C(=O)NCCCn1cncn1
16,121 to 123,COc1nc(C(F)(F)F)cc(=O)n1-c1cc(C(=O)OC(C)C)c(Cl)cc1F
17,252 to 253,NC(=O)c1coc2c1C(=O)CC(c1ccccc1)C2 (stereo not given)
18,188 to 190,O=C1C(Cc2ccccc2CF)c2ccccc2C12COc1cc3c(cc12)OCCO3 (stereo not given)
19,180 to 182,O=C1NCCN1c1ccc(S(=O)(=O)Nc2cccc(Cl)c2)cc1
